Data taken from PMC7156724, “Potent BRD4 inhibitor suppresses cancer cell-macrophage interaction” (Nature Communications, 2020).
Where “and” joins values, the source holds several entries; their conditions need not be identical. Identical values can stand only once. Like-named read-outs stand apart in the source and are kept apart here.

Legend:
[1] = test system: TAMs; test: Ki67 FACS of TAMs induced by CSF1; format: cell-based, mouse
Description: Flow cytometry analyses were performed using antibodies listed in Supplementary Table 8. For cell surface markers, mouse TAM suspensions were stained with mouse APC-CD45, FITC-CD11b, PE-F4/80 or APC-F4/80, CD68, and PE-CD206 antibodies for 15 min on ice. For Ki67 staining, cells were fixed in 4% paraformaldehyde and stained with FITC-Ki67. Isotype matching antibody served as the negative control. Flow cytometry was performed on a FACSCalibur (BD Biosciences). Data were analyzed with BD CellQuest Pro software version 5.1.
Supplementary Figure 14. NHWD-870 and BRD4 deletion partially inhibite d prolifera tion of TAMs […]
(a) CD45+CD11b+F4/80 + TAMs in the orthotopic B16 melanoma model were harvested from tumors. Shown are representative FACS plots of TAMs. (b,c) Representative FACS plots (b) and quantification (c) of Ki67+ macrophages treated with 50 ng/ml CSF1, and DMSO or 25 or 50 nM NHWD-870. […]
TAMs induced by CSF1. (a-c) CD11b+F4/80+ macrophages in the orthotopic B16F10 melanoma model were harvested from tumor tissues. Shown are representative CD45+, CD11b+, F4/80+ FACS plots (a) and quantification of the percentage of Ki67+ cells after treatment with DMSO or NHWD-870 dependent on CSF1 stimulation (b,c). (d-g) FACS plots and quantification of the percentage of Ki67+ cells after CRISPR/Cas9-mediated BRD4 knockout (d,e) and c-MYC knockout (f,g) in CD11b+F4/80+ macrophages. CSF1 is added at the indicated concentration.
Please also see response to comment # 4 about our 2D assays, in which we used colony number to quantify the number of TAMs.
NHWD-870 treatment and the main differences are colony size.
6. For comparison purposes, it would be a good idea to compare the direct effect of NHWD-870 on in […]
marrow derived macrophage proliferation and gene expression in vitro). […]

[2] = Concentration in lungs and tumors of H526 xenograft model; format: in vivo, mouse; details: for concentration at 8 h / concentration at 24 h: female, BALB/c nude, mouse, oral
Source text: Supplementary Figure 7. Pharmacokinetic profile of NHWD-870 using mouse and rat models. […]
98615821 on day 21. These mice were administrated the indicated drug daily for 21 days. Data are represented as mean ± SEM of 3 independent experiments. Source data are provided as a Source Data file. […]
9. In vivo pharmacokinetics study. Mouse and SD rat models were used to evaluate pharmacokinetic property of NHWD-870. NHWD-870 was administrated […]
Concentration of drugs in plasma, lung and tumor tissues were measured for the indicated time. […]

[3] = test system: PI3K/AKT1 and ERK phosphorylation; test: Western blot of p-PI3K, p-AKT1 and p-ERK in TAMs; format: cell-based, mouse
Description: Supplementary Figure 13. NHWD-870 inhibited CSF1/CSF1R signaling pathw ay to reduce TAM […]
TA M s ( 2 ×10^5 cells) (treated with or without 10 ng/ml CSF1 and 100 nM NHWD-870 for 48 h) were seeded into the 6-well bottom chamber, in the presence or absence of A2780 cells (pre-treated with or without 100 nM NHWD-870 for 48 h) seeded into the top chamber (transwell size: 0.4μm). Shown are schematics of the experiment and representative western blot analysis of the indicated proteins (a), and quantification of the relative levels of p-PI3K, p-AKT1 and p-ERK over their respective total protein (b). Data are presented as mean ± SEM from 3 independent experiments. p values were calculated using two-tailed, unpaired t tests. n.s, no significant; **, p<0.01; ***, p<0.001. Source data are provided as a Source Data file. […]
4. Protein extraction and w estern blot anal ysis. Freshly dissected unfixed tissue was homogenized in lysis buffer. The lysates were centrifuged at 13,000g for 10 minutes at 4°C. Supernatants were collected and determined with a Bradford Protein Assay kit (Bio-Rad, Hercules, CA). The cell lysates were subjected to SDS-PAGE followed by immunoblotting (Immobilon P; Millipore, Milford, MA) with specific antibodies followed by detection using an enhanced chemilumine scence kit (Amersham Life Science, Arlington Heights, IL). […]

[4] = A2780&NHWD-870, individual replicates
[5] = CSF1&NHWD-870, individual replicates

Structure (SMILES): Cc1nnn(C)c1-c1cnc2c3c4cnn(C)c4ccc3n([C@H](c3ccccc3)C3CCOCC3)c2c1 [NHWD-870]
- decrease of TAMs proliferation (Ki67 FACS) ([1]; TAMs induced by CSF1): ~ 50%
- fold decrease of CSF1 induced growth of macrophages ([1]; direct treatment of TAMs in 2D growth assays): < 2 fold
- Analyte Concentration in Tumor Homogenate ([2]; Group 2, 3 mg/kg QD, 8h, individual animals): 51.4 ng/mL and 12.9 ng/mL and 16.6 ng/mL
- Analyte Concentration in Lung Homogenate ([2]; Group 2, 3 mg/kg QD, 8h, individual animals, LLOQ 1 ng/mL): 13.8 ng/mL and 4.51 ng/mL and 8.51 ng/mL
- Analyte Concentration in Lung ([2]; Group 2, 3 mg/kg QD, 8h, individual animals, LLOQ 10 ng/g): 138 ng/g and 45.1 ng/g and 85.1 ng/g
- Analyte Concentration in Tumor ([2]; Group 2, 3 mg/kg QD, 8h, individual animals, dilution factor 10): 514 ng/g and 129 ng/g and 166 ng/g
- Analyte Concentration in Tumor Homogenate ([2]; Group 2, 3 mg/kg QD, 24h, individual animals): 3.37 ng/mL and 2.3 ng/mL and 5.48 ng/mL
- Analyte Concentration in Lung Homogenate ([2]; Group 2, 3 mg/kg QD, 24h, individual animals, LLOQ 1 ng/mL): BQL
- Analyte Concentration in Lung ([2]; Group 2, 3 mg/kg QD, 24h, individual animals, LLOQ 10 ng/g): BQL
- Analyte Concentration in Tumor ([2]; Group 2, 3 mg/kg QD, 24h, individual animals, dilution factor 10): 33.7 ng/g and 23 ng/g and 54.8 ng/g
- Analyte Concentration in Tumor Homogenate ([2]; Group 3, 1.5 mg/kg QD, 8h, individual animals): 19.2 ng/mL and 22.1 ng/mL
- Analyte Concentration in Lung Homogenate ([2]; Group 3, 1.5 mg/kg QD, 8h, individual animals, LLOQ 1 ng/mL): 6.31 ng/mL and 9.86 ng/mL
- Analyte Concentration in Lung ([2]; Group 3, 1.5 mg/kg QD, 8h, individual animals, LLOQ 10 ng/g): 63.1 ng/g and 98.6 ng/g
- Analyte Concentration in Tumor ([2]; Group 3, 1.5 mg/kg QD, 8h, individual animals, dilution factor 10): 192 ng/g and 221 ng/g
- Analyte Concentration in Tumor Homogenate ([2]; Group 3, 1.5 mg/kg QD, 24h, individual animals): 2.34 ng/mL and 1.67 ng/mL
- Analyte Concentration in Lung Homogenate ([2]; Group 3, 1.5 mg/kg QD, 24h, individual animals, LLOQ 1 ng/mL): BQL
- Analyte Concentration in Lung ([2]; Group 3, 1.5 mg/kg QD, 24h, individual animals, LLOQ 10 ng/g): BQL
- Analyte Concentration in Tumor ([2]; Group 3, 1.5 mg/kg QD, 24h, individual animals, dilution factor 10): 23.4 ng/g and 16.7 ng/g
- Analyte Concentration in Tumor Homogenate ([2]; Group 4, 3 mg/kg Q2D, 8h, individual animals): 82.3 ng/mL and 21.5 ng/mL and 23.8 ng/mL
- Analyte Concentration in Lung Homogenate ([2]; Group 4, 3 mg/kg Q2D, 8h, individual animals, LLOQ 1 ng/mL): 49.2 ng/mL and 8.34 ng/mL and 15.8 ng/mL
- Analyte Concentration in Lung ([2]; Group 4, 3 mg/kg Q2D, 8h, individual animals, LLOQ 10 ng/g): 492 ng/g and 83.4 ng/g and 158 ng/g
- Analyte Concentration in Tumor ([2]; Group 4, 3 mg/kg Q2D, 8h, individual animals, dilution factor 10): 823 ng/g and 215 ng/g and 238 ng/g
- Analyte Concentration in Tumor Homogenate ([2]; Group 4, 3 mg/kg Q2D, 24h, individual animals): 6.96 ng/mL and 4.06 ng/mL and 14.6 ng/mL
- Analyte Concentration in Lung Homogenate ([2]; Group 4, 3 mg/kg Q2D, 24h, individual animals, LLOQ 1 ng/mL): 6.96 ng/mL and BQL and 2.42 ng/mL
- Analyte Concentration in Lung ([2]; Group 4, 3 mg/kg Q2D, 24h, individual animals, LLOQ 10 ng/g): 69.6 ng/g and BQL and 24.2 ng/g
- Analyte Concentration in Tumor ([2]; Group 4, 3 mg/kg Q2D, 24h, individual animals, dilution factor 10): 69.6 ng/g and 40.6 ng/g and 146 ng/g
- penetration into the lungs and SCLC tumors ([2]; H526 xenograft model, oral 3 mg/kg daily for 21 days): good penetration into the lungs and SCLC tumors
- concentration at 8 h ([2]; lung homogenate, 1.5 mg/kg, Group 3, 1.5 mg/kg QD, 8h, individual animals, LLOQ 1 ng/mL, read-out: Analyte Concentration in Lung Homogenate): 5.65 ng/mL
- concentration at 24 h ([2]; lung homogenate, 3 mg/kg, Group 2, 3 mg/kg QD, 24h, individual animals, LLOQ 1 ng/mL, read-out: Analyte Concentration in Lung Homogenate): 1.12 ng/mL
- concentration at 8 h ([2]; lung, 1.5 mg/kg, Group 3, 1.5 mg/kg QD, 8h, individual animals, LLOQ 10 ng/g, read-out: Analyte Concentration in Lung): 56.5 ng/g
- concentration at 8 h ([2]; lung, 1.5 mg/kg, Group 3, 1.5 mg/kg QD, 8h, mean, read-out: Mean Concentration in Lung): 72.7 ng/g
- concentration at 8 h ([2]; lung, 3 mg/kg, Group 2, 3 mg/kg QD, 8h, mean, read-out: Mean Concentration in Lung): 89.4 ng/g
- concentration at 24 h ([2]; lung, 3 mg/kg, Group 2, 3 mg/kg QD, 24h, individual animals, LLOQ 10 ng/g, read-out: Analyte Concentration in Lung): 11.2 ng/g
- concentration at 8 h ([2]; lung, 3 mg/kg, Group 4, 3 mg/kg Q2D, 8h, mean, read-out: Mean Concentration in Lung): 244 ng/g
- concentration at 24 h ([2]; lung, 3 mg/kg, Group 4, 3 mg/kg Q2D, 24h, mean, read-out: Mean Concentration in Lung): 46.9 ng/g
- concentration at 8 h ([2]; tumor homogenate, 1.5 mg/kg, Group 3, 1.5 mg/kg QD, 8h, individual animals, read-out: Analyte Concentration in Tumor Homogenate): 14.3 ng/mL
- concentration at 24 h ([2]; tumor homogenate, 1.5 mg/kg, Group 3, 1.5 mg/kg QD, 24h, individual animals, read-out: Analyte Concentration in Tumor Homogenate): 2.06 ng/mL
- concentration at 8 h ([2]; tumor, 1.5 mg/kg, Group 3, 1.5 mg/kg QD, 8h, individual animals, dilution factor 10, read-out: Analyte Concentration in Tumor): 143 ng/g
- concentration at 8 h ([2]; tumor, 1.5 mg/kg, Group 3, 1.5 mg/kg QD, 8h, mean, read-out: Mean Concentration in Tumor): 185 ng/g
- concentration at 24 h ([2]; tumor, 1.5 mg/kg, Group 3, 1.5 mg/kg QD, 24h, individual animals, dilution factor 10, read-out: Analyte Concentration in Tumor): 20.6 ng/g
- concentration at 24 h ([2]; tumor, 1.5 mg/kg, Group 3, 1.5 mg/kg QD, 24h, mean, read-out: Mean Concentration in Tumor): 20.2 ng/g
- concentration at 8 h ([2]; tumor, 3 mg/kg, Group 2, 3 mg/kg QD, 8h, mean, read-out: Mean Concentration in Tumor): 270 ng/g
- concentration at 24 h ([2]; tumor, 3 mg/kg, Group 2, 3 mg/kg QD, 24h, mean, read-out: Mean Concentration in Tumor): 37.2 ng/g
- concentration at 8 h ([2]; tumor, 3 mg/kg, Group 4, 3 mg/kg Q2D, 8h, mean, read-out: Mean Concentration in Tumor): 425 ng/g
- concentration at 24 h ([2]; tumor, 3 mg/kg, Group 4, 3 mg/kg Q2D, 24h, mean, read-out: Mean Concentration in Tumor): 85.4 ng/g
- p-AKT1 (Sup Fig.13b quantification) [3, 4]: 2.1 and 1.52 and 1.57
- p-ERK (Sup Fig.13b quantification) [3, 4]: 1.19 and 1.05 and 0.87
- p-PI3K (Sup Fig.13b quantification) [3, 4]: 2.9 and 1.18 and 1.69
- p-AKT1 (Sup Fig.13b quantification) [3, 5]: 6.88 and 4.52 and 4.09
- p-ERK (Sup Fig.13b quantification) [3, 5]: 3.28 and 4.19 and 4.11
- p-PI3K (Sup Fig.13b quantification) [3, 5]: 2.92 and 3.3 and 3.78
- CSF1-induced PI3K/AKT1 and ERK phosphorylation in TAMs ([3]; direct treatment of TAMs, 100 nM, 48 h): not affected
- PI3K/AKT1 and ERK activation in TAMs co-cultured with A2780 cells ([3]; pre-treatment of A2780 cells, 100 nM, 48 h): blocked
